# Measurements: US11078245B2, “Colon and pancreas cancer peptidomimetics” (PRECISION BIOLOGICS, INC., priority 2010, dated 2021)
# “Also recorded” adds a separate entry of the source. Ends that are not written are not given here.
# Assays:
# [1] = system: NEO-101 antibody; assay: 4-1-4-C12-KLH binding ELISA
# [2] = system: NPC-1C antigen; assay: 4-1-4C12-KLH competitive ELISA; format: binding
# Experimental: (§1) An exemplary NPC-1 antigen peptidomimetic, 4-1-4C12 (SEQ ID NO: 5) was conjugated to KLH (Keyhole Limpit Hemocyannin) (“4-1-4-C12-KLH”). […] Further, 4-1-4C12-KLH blocks NPC-1 binding to NPC-1C antigen specifically in competitive ELISA. After confirming the function of 4-1-4C12-KLH, 4-1-4C12-KLH was injected into rabbits. The immunized serum after third injection was tested by binding ELISA to check the function of 4-1-4C12-KLH induced antibody. The plate was coated with 4-1-4C12 peptide or CFPAC1 sup, diluted serum was added to the washed and blocked the plate. Bound rabbit IgG was detected by donkey anti-rabbit IgG-HRP.
# [3] = system: 4-1-4C12 peptide; assay: Rabbit immunization, serum binding ELISA; format: in vivo, rabbits; conditions: rabbit serum after third injection
# Experimental: as §1
# [4] = molecular target: T1, CFPAC1 sup (Homo sapiens, UniProt P98088); assay: Rabbit immunization, serum binding ELISA; format: in vivo, rabbits; conditions: rabbit serum after third injection
# T1 construct: endogenous in cells; host or cells: CFPAC-1 (human pancreatic tumor cell line); cells or serum-free conditioned medium
# Experimental: as §1
substance,measurement,setting,value
4-1-4-C12-KLH: 4-1-4C12 (SEQ ID NO: 5) conjugated to KLH (Keyhole Limpit Hemocyannin) (SLPDDWFRYINY; also: conjugated to KLH (keyhole limpet hemocyanin)),binding to NEO-101 antibody,[1],binds to NEO-101 antibody
same,blocking of NPC-1 binding to NPC-1C antigen,[2],blocks
same,immunized serum binding to 4-1-4C12 peptide,[3],binds to 4-1-4C12; also recorded: dose dependent manner
same,immunized serum binding to CFPAC1 supernatant,[4],bind to CFPAC1 human pancreatic cell line supernatant; also recorded: dose dependent manner
